From patent US12139505B2, “Compositions useful in therapy of autophagy-related pathologies, and methods of making and using the same” (The University of Toledo, priority 2017, dated 2024)
“Also recorded” adds a separate entry of the source.

Experiments:
[1] = test system: RG2 glioma cells; test: Autophagic flux assay (LC3-II western blot in the presence of bafilomycin-A1); format: cell-based, rat
Description: In the assay, cells are treated with subtoxic concentrations of bafilomycin-A, which blocks lysosomal acidification. This prevents autophagosome fusion with lysosomes at a specific point. For example, RG2 glioma cells (or other cell types) are “clamped” by addition of 10-50 nM bafilomycin-A1 to block autophagosome fusion with lysosomes and eliminate autophagy clearance. Then, autophagy flux is measured by the conjugation of phosphatidylethanolamine to LC3-I, yielding an electrophoretically separable LC3-II by western blot. LC3-II acts as a link between nascent autophagosomes and cargo being directed into these structures. An autophagy enhancer will increase LC3-II in the presence of bafilomycin, whereas a compound that inhibits autophagy completion will not do so. Thus, the L3A-I to LC3A-II conversion in the presence of bafilomycin-A1 constitutes a valid measure of autophagy.
For the assays, rat glioma cells RG2 (ATCC® CRL-2433™; RG2 cells) were cultured. […] The cells were then incubated for an additional 4 h. At termination, the cell culture medium was removed, cells were washed with PBS and lysed on ice in Pierce RIPA buffer containing protease and phosphatase inhibitors.
Western Blotting: The proteins were electrophoresed and wet-blotted to polyvinylidine difluoride membranes, blocked overnight in 4% bovine serum albumin, and developed using antibodies obtained from Cell Signaling Technology (L3A: cat #. 4599; ULK1: cat #. 8054, ULK1(p757): cat #. 6880).
RG2 glioma cells were treated without drug (first column in FIG. 8A) or 4 h with 50 nM bafilomycin-A1 (BAF), the indicated concentration of LK, or the phosphonate analog 2-isopropyl-LK-3-phosphonate. The western blot results are shown in FIG. 8A, where the lower band corresponds to LC3-II. An increase in the intensity of this band in the presence of bafilomycin-A1 indicates increased autophagic flux. […] Similar results are shown in FIG. 9 with respect to the LK-P compound 2-butyl-lanthionine-phosphonate (also referred to as 2-n-butyl-lanthionine-phosphonate or 2-n-butyl-LK-P).
RG2 glioma cells (American Tissue Type Collection, ATTC, Rockville MD USA) were treated for 4 h with 50 nM bafilomycin-A1 (previously dissolved to 1000× final concentration in dimethylsulfoxide). Thirty minutes after addition of bafilomycin, cells were treated with test agents at 100× final concentration. Cells were lysed in RIPA buffer containing protease and phosphatase inhibitors. Protein concentration was assayed and normalized to constant values (typically 5-7 mg/mL). Proteins were electrophoresed across 4-20% polyacrylamide gels and wet blotted onto polyvinylidine difluoride (PVDF) membranes. Proteins were blotted with commercially available antibodies against LC3.

[2] = test system: SH-SY5Y cells; test: Cell viability, MTS assay; format: cell-based, human; conditions: for average cell viability: 24 hours; for toxicity to neuroblastoma cells: 0.1 to 1 μM
Description: Synthesized compounds were added to a 3-dram screw capped vial, followed by DMSO (ca. 5 mL) to make a 10 mM stock solution. The test stock solution was made and used on the same day. 100 μL of the 10 mM stock solution was diluted into 900 μL of DMSO (1:9 dilution) to make 1 mM stock solution. 100 μL of the 1 mM stock solution was diluted into 900 μL of DMSO (1:9 dilution) to make a 100 μM solution. 100 μL of the 100 μM stock solution was diluted into 900 µL of DMSO (1:9 dilution) to make a 10 μM stock solution. The test solutions were prepared by using the dilution ratio of 10 μL stock solutions into 990 μL (1:99 dilution) of Complete Culture Media (CCM) to afford drug solution (1% DMSO) from 0.1 to 100 μM. For positive control: 10 mg/mL of TritonX-100 is diluted in CCM. For negative control: 1 μL of DMSO is dissolved in every 100 μL of CCM.
Cells were grown in bulk in 100 mm petri dishes. On the day of use, the cell culture media was removed from the dish. SH-SY5Y cells were washed with PBS, then 0.25% Trypsin/EDTA was used to aid in detaching the cells, CCM was then added to neutralize the Trypsin/EDTA and wash the cells from the dish. Washed cells are collected in a centrifuge tube for concentration. After centrifugation at 2000 RPM for 5 minutes, the cells were re-suspended in CCM. The final concentration of cells was 5×10^3 per 100 μL The 5000 cells/100 μL solution was seeded into a clear, flat bottomed, 96-well microliter plate and incubated for 24 hours at 37° C. in 5% CO2. After 24 hours, the media was removed and replaced by 100 μL CCM containing the drug/positive/negative control and was incubated at 37° C. in a 5% CO2 for 24 hours. After this incubation period, 20 μL of MTS solution was added to each well via a multichannel pipette. The plates were shaken by hand to thoroughly mix the MTS solution into the media and incubated at 37° C. in a 5% CO2 for 4 hours. The absorbance was read at 490 nm using the Synergy Neo microplate reader.

[3] = test system: PINK1^B9 flies; test: Fly climbing assay; format: in vivo, Drosophila melanogaster; conditions: 100 μM in media
Description: 2-n-hexyl-LKE-P was dissolved in DMSO and supplemented into a warm solution of minimal media (5% sucrose, 2% agarose and water, 60° C.) to a final concentration of 10, 100 and 1000 μM. Freshly eclosed adult flies were transferred to minimal media containing the drug for one day followed by the experiments. The locomotive ability of flies was assessed 10 days after eclosion via a climbing assay. 15 flies were transferred to a tube marked 17.5 cm from the bottom and a digital camera, connected directly to a PC, recorded flies as they cross the line, continuously, for two minutes. Analysis of the recorded video was done by recording the number of flies that remain above the 17.5 cm line every ten seconds. If a fly climbs back down or falls, that fly is removed from the total count at the next 10 second time point. The percentage of flies remaining above the line at the 120 second time point was recorded. The 120 second time point was chosen because it has been previously determined that this is the average amount of time required for all untreated flies to cross the 17.5 cm mark.

[4] = test system: RG2 glioma cells; test: Proliferative capacity of glioma cells, tetrazolium reduction assay; format: cell-based, rat
Description: Biomarkers of autophagy have been positively correlated with relatively better prognosis (longer patient lifespan) in humans suffering from high grade glioma. Accordingly, phosphonate analogs were tested for ability to reduce replicative capacity in RG2 glioma cells wherein the compounds increase autophagy. Cells were plated at low density (approximately 25,000 cells/[…]) using general cell culture methods, and treated with logarithmic dilutions of test agent. After 24 or 48 hours, cell number was estimated by tetrazolium reduction assay using a commercially available kit (Promega Aqueous OneStep™). […] By 48 h the cells had largely achieved confluence and became somewhat contact inhibited, thus reducing the difference between control and treatment groups.

CCCCCCC1=C(P(=O)(O)O)N[C@H](C(=O)OCC)CS1 [2-n-hexyl-LKE-P]
concentration at which the compound is potent in stimulating autophagy ([1]; RG2 cells, FIG. 32A): 0.1 µM
potency relative to known results for LKE ([1]; RG2 cells, FIG. 32A): approximately 10 fold
autophagic flux / autophagy stimulation (LC3-II band in the presence of bafilomycin-A1) ([1]; RG2 glioma cells, 4 h, 50 nM bafilomycin-A1, western blot): stimulate autophagy in RG2 cells
concentration at which toxicity begins to show [2]: 10 µM
average cell viability ([2]; 10 μM): 83%
average cell viability ([2]; 100 μM): 63%
toxicity to neuroblastoma cells [2]: not toxic
toxicity to neuroblastoma cells ([2]; listed as 2-n-heyxl-LKE-P): no toxicity
climbing ability of PINK1^B9 flies [3]: statistically significant improvement in the climbing ability; also recorded: significant improvement of PINK1^B9 climbing ability
fewer cells (reduced replicative capacity) relative to cells treated with no drug ([4]; 24 h, greater than or equal to 1 nM): at least 50%
concentration range of the minimum in cell number ([4]; 48 h): 1 to 10 mM
replication of cultures ([4]; first 24 h): replicated more slowly in the first 24 h
